pIC50: −log10 of the molar value. Some results are limits rather than exact numbers.

The first assay deals with MDA-MB-436. The experiment in a line: CTG experiment on cell activity (CellTiter-Glo, 7 days). Format: cell-based. To be noted: Homo sapiens, 168 h, MDA-MB-436 cells, cultured for 7 days. As to the method: • 1. Object: USP1 inhibitors were screened on 96-well plate by CTG assay. • 2. Materials: • The cells used were MDA-MB-436 (manufacturer: Nanjing Cobioer Biotechnology Co., Ltd.), and the culture medium was DMEM. • CTG (CellTiter-Glo® Luminescent Cell Viability Assay kit) (Promega, Catalog No.: G7572) • 96-well plate (Corning, Catalog No.: 3610) • 3. Compounds: • All compounds were dissolved in 100% DMSO to obtain 50 mM stock solutions. • 4. Experimental methods:
The cells to be tested were spread into a 96-well plate at a certain density at 200 μL per well, and 200 μL of cell culture medium was added to the blank well. The spread cell plate was placed in a 37° C. incubator.
The compound was diluted to different concentrations with 100% DMSO, and the final concentration of DMSO was 4%.
The compound formulated in (2) was added to the cell plate of (1) (10 μL per well). The cell plate with the compound added was placed in a 37° C. incubator, and cultured for 7 days before assay.
The substrate and buffer of the CTG kit were mixed evenly. The cell plate with the compound added in (3) was taken out from the incubator, and placed at room temperature for 30 minutes. The compound-containing culture medium in the cell plate was removed, 100 μL of PBS and 50 μL of CTG reagent were added to each well. The mixture in each well was mixed and shaked for 3 minutes, and then incubated at room temperature for 10 minutes. The plate was read by BIotek microplate reader, and the parameter was 567 CPM. • 5. Curve fitting • Same as enzyme assay.
For orientation: ATP-based viability assays read luminescence as a measure of living cells.
A word on the pIC50: it is the negative decadic logarithm of the IC50, by convention in mol/L. With `CC(C)c1ccccc1-c1nc(NCc2ccc3c(c2)CCN(C(C)C)C3=O)c2occc2n1` [Example 78, 2-Isopropyl-6-(((2-(2-isopropylphenyl)furo[3,2-d]pyrimidin-4-yl)amino)methyl)-3,4-dihydroisoquinolin-1(2H)-one], the pIC50 was under 5.30.

Compound `COc1ncnc(C2CC2)c1-c1ncc(OC(C)C)c(NCC23CCC(c4ccc(C(F)(F)F)cn4)(CC2)CC3)n1` [Example 112, 4′-Cyclopropyl-5-isopropoxy-6′-methoxy-N-((4-(5-(trifluoromethyl)pyridin-2-yl)bicyclo[2.2.2]octan-1-yl)methyl)-[2,5′-bipyrimidin]-4-amine] gave a pIC50 of under 5.30.

Turning to `COc1cnc(-c2cccc3c2N(C)CC3)nc1NCc1ccc(-n2ncc(C(F)(F)F)c2C)cc1` [Example 146, 5-Methoxy-N-(4-(5-methyl-4-(trifluoromethyl)-1H-pyrazol-1-yl)benzyl)-2-(1-methylindolin-7-yl)pyrimidin-4-amine], the pIC50 is 5.98.

For the compound `COC1CC(Oc2ccc(CNc3nc(-c4ccccc4C(C)C)nc4ccoc34)cc2)C1` (centres unmarked) [Example 80, 2-(2-Isopropylphenyl)-N-(4-(3-methoxycyclobutoxy)benzyl)furo[3,2-d]pyrimidin-4-amine], the pIC50 was under 5.30.

`COc1cnc(-c2ccccc2C(C)C)nc1NCC1CCC(c2nc(C(F)(F)F)cn2C)CC1` [Compound 6, 2-(2-Isopropylphenyl)-5-methoxy-N-(((1R,4R)-4-(1-methyl-4-(trifluoromethyl)-1H-imidazol-2-yl)cyclohexyl)methyl)pyrimidin-4-amine] had a pIC50 of 8.70.

On to `COc1ncnc(C2CC2)c1-c1nc(NCc2ccc3c(c2)CCN(C)C3=O)c2occc2n1` [Example 114, 6-(((2-(4-Cyclopropyl-6-methoxypyrimidin-5-yl)furo[3,2-d]pyrimidin-4-yl)amino)methyl)-2-methyl-3,4-dihydroisoquinolin-1(2H)-one], for which the pIC50 is under 5.30.

In the case of `COc1cnc(-c2cccc3ccn(C)c23)nc1NCc1ccc(-c2nc(C(F)(F)F)cn2C)cc1` [Example 143, 5-Methoxy-2-(1-methyl-1H-indol-7-yl)-N-(4-(1-methyl-4-(trifluoromethyl)-1H-imidazol-2-yl)benzyl)pyrimidin-4-amine], the pIC50 was 5.84.

In turn, `COc1ncnc(C2CC2)c1-c1nc(NCc2ccc3c(c2)CCN(C(C)C)C3=O)c2occc2n1` [Example 115, 6-(((2-(4-Cyclopropyl-6-methoxypyrimidin-5-yl)furo[3,2-d]pyrimidin-4-yl)amino)methyl)-2-isopropyl-3,4-dihydroisoquinolin-1(2H)-one] gave a pIC50 of 5.79.

`CCOCCOc1ccc(CNc2nc(-c3ccccc3C(C)C)nc3ccoc23)cc1` [Example 79, N-(4-(2-Ethoxyethoxy)benzyl)-2-(2-isopropylphenyl)furo[3,2-d]pyrimidin-4-amine] had a pIC50 of 5.92.

As for `CC(C)c1ccccc1-c1nc(NCc2ccc3c(c2)CCN(C)C3=O)c2occc2n1` [Example 77, 6-(((2-(2-Isopropylphenyl)furo[3,2-d]pyrimidin-4-yl)amino)methyl)-2-methyl-3,4-dihydroisoquinolin-1(2H)-one], the pIC50 is 5.74.

Take `COc1ncnc(C2CC2)c1-c1nc(NCc2ccc(-c3ccccn3)cc2)c2[nH]ccc2n1` [Example 37, 2-(4-Cyclopropyl-6-methoxypyrimidin-5-yl)-N-(4-(pyridin-2-yl)benzyl)-5H-pyrrolo[3,2-d]pyrimidin-4-amine]: the pIC50 is under 5.30.

Compound `COc1ncnc(C2CC2)c1-c1nc(NCc2ccc(OC3CC(OC)C3)cc2)c2occc2n1` (centres unmarked) [Example 118, 2-(4-Cyclopropyl-6-methoxypyrimidin-5-yl)-N-(4-(3-methoxycyclobutoxy)benzyl)furo[3,2-d]pyrimidin-4-amine] showed a pIC50 of 5.83.

Consider `CC(C)c1ccccc1-c1ncc(N2CCOCC2)c(NCc2ccc(-c3nc(C(F)(F)F)cn3C)cc2)n1` [Example 87, 2-(2-Isopropylphenyl)-N-(4-(1-methyl-4-(trifluoromethyl)-1H-imidazol-2-yl)benzyl)-5-morpholinopyrimidin-4-amine], for which the pIC50 is 5.58.

`COc1cnc(-c2ccccc2C(C)C)nc1NCc1ccc(OCc2ccccn2)cc1` [Example 67, 2-(2-Isopropylphenyl)-5-methoxy-N-(4-(pyridin-2-ylmethoxy)benzyl)pyrimidin-4-amine] had a pIC50 of 5.93.

On to `COc1cnc(-c2cccc3ccn(C)c23)nc1NCc1ccc(-n2nc(C(F)(F)F)cc2C)cc1` [Example 144, 5-Methoxy-2-(1-methyl-1H-indol-7-yl)-N-(4-(5-methyl-3-(trifluoromethyl)-1H-pyrazol-1-yl)benzyl)pyrimidin-4-amine], for which the pIC50 is 5.78.

On to `COc1ncnc(C2CC2)c1-c1ncc2c(n1)N(CC1CCC(c3nc(C(F)(F)F)cn3C)CC1)CCO2` (centres unmarked) [Compound 22, 2-(4-Cyclopropyl-6-methoxypyrimidin-5-y1)-8-(((1r,4r)-4-(1-methyl-4-(trifluoromethyl)-1H-imidazol-2-yl)cyclohexyl)methyl)-7,8-dihydro-6H-pyrimido[5,4-b][1,4]oxazine], for which the pIC50 was 6.68.

Consider `COc1cnc(-c2ccccc2C(C)C)nc1N(C)Cc1ccc(-c2ccccn2)cc1` [Compound 1, 2-(2-isopropylphenyl)-5-methoxy-N-methyl-N-(4-(pyridin-2-yl)benzyl)pyrimidin-4-amine], for which the pIC50 was 5.90.

The same assay, now with this note: MDA-MB-436 cells, cultured for 7 days.
`COc1cnc(-c2c(OC)ncnc2C2CC2)nc1NCC12C3C4C1C1C2C3C41c1nc(C(F)(F)F)cn1C` (centres unmarked) [Example 215]: the pIC50 was 8.06.

The target of a further assay is Recombinant human His6-USP1/His6-UAF1 complex protein (Homo sapiens (Human), UniProt O94782). The experiment in a line: In vitro , fluorescence detection with Ub-Rho substrate. The assay is classed as biochemical.
Chain of Recombinant human His6-USP1/His6-UAF1 complex protein (O94782 whole entry): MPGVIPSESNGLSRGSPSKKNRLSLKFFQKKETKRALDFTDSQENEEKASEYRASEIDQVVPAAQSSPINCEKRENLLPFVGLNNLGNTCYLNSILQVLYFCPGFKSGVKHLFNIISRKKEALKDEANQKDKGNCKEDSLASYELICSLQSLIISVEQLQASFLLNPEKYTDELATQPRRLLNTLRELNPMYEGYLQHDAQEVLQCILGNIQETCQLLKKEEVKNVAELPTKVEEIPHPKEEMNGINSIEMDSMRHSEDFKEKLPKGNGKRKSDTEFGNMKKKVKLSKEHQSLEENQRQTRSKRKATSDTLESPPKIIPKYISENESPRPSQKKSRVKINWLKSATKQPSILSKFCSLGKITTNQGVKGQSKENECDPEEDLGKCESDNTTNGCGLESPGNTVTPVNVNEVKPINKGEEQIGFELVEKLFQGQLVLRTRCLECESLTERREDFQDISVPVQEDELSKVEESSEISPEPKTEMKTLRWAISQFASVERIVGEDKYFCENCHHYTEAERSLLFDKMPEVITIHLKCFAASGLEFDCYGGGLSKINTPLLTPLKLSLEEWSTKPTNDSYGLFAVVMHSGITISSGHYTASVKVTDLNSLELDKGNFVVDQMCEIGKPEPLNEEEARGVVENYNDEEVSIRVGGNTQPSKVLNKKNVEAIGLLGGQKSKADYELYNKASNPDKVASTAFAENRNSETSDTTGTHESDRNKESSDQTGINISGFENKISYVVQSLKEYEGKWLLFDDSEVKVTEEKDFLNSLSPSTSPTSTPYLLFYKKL
Chain of Recombinant human His6-USP1/His6-UAF1 complex protein (Q8TAF3 whole entry partner): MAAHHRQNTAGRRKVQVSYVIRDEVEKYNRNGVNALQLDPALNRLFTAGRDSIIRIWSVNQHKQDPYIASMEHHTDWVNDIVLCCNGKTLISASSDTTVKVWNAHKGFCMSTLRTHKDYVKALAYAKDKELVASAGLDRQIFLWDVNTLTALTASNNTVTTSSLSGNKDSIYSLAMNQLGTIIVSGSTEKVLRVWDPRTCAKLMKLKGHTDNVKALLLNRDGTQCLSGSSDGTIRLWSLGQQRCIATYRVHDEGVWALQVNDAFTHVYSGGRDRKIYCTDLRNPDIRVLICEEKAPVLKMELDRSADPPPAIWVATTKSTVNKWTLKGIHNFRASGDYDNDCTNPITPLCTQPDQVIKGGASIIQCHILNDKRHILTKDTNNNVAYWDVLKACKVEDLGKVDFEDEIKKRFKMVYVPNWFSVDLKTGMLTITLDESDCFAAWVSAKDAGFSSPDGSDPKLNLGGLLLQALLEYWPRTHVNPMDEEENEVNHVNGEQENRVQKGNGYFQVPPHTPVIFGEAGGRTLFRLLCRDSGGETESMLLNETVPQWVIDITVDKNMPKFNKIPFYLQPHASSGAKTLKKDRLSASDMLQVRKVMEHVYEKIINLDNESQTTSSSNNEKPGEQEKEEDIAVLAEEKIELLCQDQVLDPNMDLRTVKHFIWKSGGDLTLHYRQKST
Details: not given
The method, then: Experimental object: The USP1 […] inhibitory activity of the compounds was screened by fluorescence detection method using 384-well plates.
Experimental materials: Recombinant human His6-USP1/His6-UAF1 complex protein (R&D, Catalog No.: E-568-050), ubiquitin rhodamine 110 protein (Ub-Rho) (R&D, Catalog No.: U-555-050), 384-well plate (Perkin Elmer, Catalog No.: 6007279); all compounds were dissolved in 100% DMSO to obtain a 50 mM stock solution.
• 1) Preparation of 1× assay buffer: 1× assay buffer (modified Tris buffer) was prepared; • 2) Compound dilution: The compound was transferred to the assay plate by Echo. The final concentration of DMSO is 1%; • 3) Preparation of enzyme solution: Recombinant human His6-USP1/His6-UAF1 complex protein was added to 1× assay buffer to obtain an enzyme solution; • 4) Preparation of substrate solution: Ubiquitin rhodamine 110 protein CF (Ub-Rho) was added to 1× assay buffer to obtain a substrate solution; • 5) 10 μL enzyme solution was transferred to the assay plate, and 10 μL 1× assay buffer was added to the control well; • 6) The plate was incubated at room temperature for 1 hour; • 7) 10 μL substrate solution was added to each well to start the reaction, and the plate was centrifuged for 30 seconds, and shaked for 30 seconds; • 8) The plate was read with Envision after 30 minutes, and the parameters were excitation light 480 nm and emission light 540 nm; • 9) The data was collected and summarized; • 10) Curve fitting: The data was fitted in Excel, Inhibition rate formula: Percent inhibition rate=(maximum value−signal value)/(maximum value−minimum value)×100; the data was fitted in XL-Fit, • Half inhibition concentration formula: Percent inhibition rate=minimum concentration+(maximum concentration−minimum concentration)/(1+(half inhibition concentration/compound concentration)^slope); • Half inhibition concentration is referred to as IC50 hereinafter.
For `CC(C)c1ccccc1-c1ncc2c(n1)N(C[C@H]1CC[C@@H](c3nc(C(F)(F)F)cn3C)CC1)CCO2` [Compound 14, 2-(2-Isopropylphenyl)-8-(((1s,4s)-4-(1-methyl-4-(trifluoromethyl)-1H-imidazol-2-yl)cyclohexyl)methyl)-7,8-dihydro-6H-pyrimido[5,4-b][1,4]oxazine], the pIC50 is 7.22.

Take `COc1cnc(-c2c(C)ncn2C(C)C)nc1NCC12CCC(c3ccc(C(F)(F)F)cn3)(CC1)CC2` [Example 148, 2-(1-Isopropyl-4-methyl-1H-imidazol-5-yl)-5-methoxy-N-((4-(5-(trifluoromethyl)pyridin-2-yl)bicyclo[2.2.2]octan-1-yl)methyl)pyrimidin-4-amine]: the negative logarithm of the IC50 (pIC50) is 5.98.

As for `COc1cnc(-c2c(OC)ncnc2C2CC2)nc1NCC12C3C4C1C1C2C3C41c1nc(C(F)(F)F)cn1C` (centres unmarked) [Example 215], the pIC50 is 8.66.

`CC(C)c1ccccc1-c1ncc2c(n1)N(C[C@H]1CC[C@H](c3nc(C(F)(F)F)cn3C)CC1)CCO2` [Compound 13, 2-(2-Isopropylphenyl)-8-(((1R,4R)-4-(1-methyl-4-(trifluoromethyl)-1H-imidazol-2-yl)cyclohexyl)methyl)-7,8-dihydro-6H-pyrimido[5,4-b][1,4]oxazine]: the pIC50 is 8.72.

On to `COc1ncnc(C2CC2)c1-c1nc(NCc2ccc(-c3ccccn3)cc2)c2occc2n1` [Example 34, 2-(4-Cyclopropyl-6-methoxypyrimidin-5-y1)-N-(4-(pyridin-2-yl)benzyl)furo[3,2-d]pyrimidin-4-amine], for which the pIC50 was 8.16.
